In patent US9642825B2, “Bio-available N-acetyl creatine species and compositions thereof” (4141 HOLDINGS, LLC, priority 2014, dated 2017):

How the values were obtained:
[1] = Dissolution time of 1 gram in distilled water at room temperature; format: physicochemical; details: 75 RPM
[2] = Chemical stability in aqueous media (conversion to creatinine); format: physicochemical
Method: As may be seen, 1 gram of N-acetyl creatine dissolves faster than other creatine derivatives, except creatine ethyl ester HCl, designated Creatine EE Hcl—(High Creatine Conversion) in FIG. 1. However, this shorter dissolution time may be deceiving. […] Instead, Creatine ethyl ester HCl decomposes into creatinine in a matter of 2 to 3 minutes. Creatinine is an excretory byproduct produced from the breakdown of creatine phosphate and offers none of the numerous benefits of creatine. In other words, Creatine ethyl ester HCl is unstable and its rapid conversion to creatinine makes it ineffective in delivering bioavailable creatine to the body.

[3] = Solubility in water; format: physicochemical
[4] = Dissolution time of 1 gram in 0.1N HCl (pH 1.2); format: physicochemical; details: 1.000 Gram in 900 ml 0.1N HCl in Water, pH = 1.2, 73 C., 75 RPM
[5] = system: person with myasthenia gravis; details: five grams daily, resistance training 3 times per week for 15 weeks; cited from earlier work
[6] = system: muscle strength and weightlifting performance; details: cited from earlier work
[7] = system: myostatin; details: cited from earlier work
[8] = system: human fibroblasts; details: cited from earlier work
[9] = 1.000 Gram in 900 ml Distilled Water, creatine types
[10] = creatine supplementation plus resistance training
[11] = versus placebo ingestion during resistance training
[12] = 1.000 g in 900 ml Distilled Water, L-leucine versus N-acetyl L-leucine

For CN(CC(=O)O)C(=N)N.O=[N+]([O-])O [Creatine Nitrate], the “Time (Minutes) to dissolve” value [1, 9] was 9.12 min.
For CC(=O)NC(=N)N(C)CC(=O)O [N-acetyl creatine], the “stability in solution (in words)” value [2] was “remains stable in solution”, the “times more soluble than the parent compound creatine” value [3] was 30 times and the “increase of solubility with respect to creatine monohydrate” value ([3]; water) was 30 fold. For the same compound, the solubility in water ([3]; water) was 400 grams/1 liter, the “Time (Minutes) to dissolve” value [4] was 2.17 min and the “Time (Minutes) to dissolve” value [1, 9] was 3.70 min.
For CN(CC(=O)O)C(=N)N.O=C(O)CC(O)(CC(=O)O)C(=O)O [Creatine Citrate], the “Time (Minutes) to dissolve” value [1, 9] was 10.10 min.
With CCOC(=O)CN(C)C(=N)N.Cl [Creatine ethyl ester HCl] the “stability in solution (in words)” value [2] was “unstable”, the “Time (Minutes) to dissolve” value [4] was 0.95 min and the “Time (Minutes) to dissolve” value [1, 9] was 1.68 min.
In the case of Creatine Taurinate, the “Time (Minutes) to dissolve” value [4] is reported as 10.30 min and the “Time (Minutes) to dissolve” value [1, 9] is reported as 15.85 min.
For CN(CC(=O)O)C(=N)N [creatine, 2-(carbamimidoyl-methyl-amino) acetic acid], the improved peak strength [5] is listed as “up to 37%”, the “increase in body weight” value [5] is listed as 7% and the “increase in fat free mass” value [5] is listed as 4%. For the same compound, the “average increase in muscle strength” value [6, 10] was 20%, the “average increase in weightlifting performance (maximal repetitions at a given percent of maximal strength)” value [6, 10] was 26% and the “average increase in muscle strength, greater than following placebo” value [6, 11] was 8%. The “average increase in weightlifting performance, greater than following placebo” value [6, 11] was 14% and the “myostatin blocked in muscle” value [7] was 60%.
For CC(C)C[C@H](N)C(=O)O [Leucine, L-leucine], the “solubility in an aqueous medium (in words)” value ([3]; aqueous medium) was “very low water solubility”, the “solubility of free leucine relative to N-acetyl-Leucine” value ([3]; aqueous medium) was “ten times greater” and the “Time (Minutes) to dissolve” value [1, 12] was 12.82 min.
For CCCCCCCCCCCCOC(=O)CN(C)C(=N)N [dodecyl creatine ester], the “increase compared with the endogenous creatine content” value [8] is listed as 20 fold.
For CN(CC(=O)O)C(=N)N.O [Creatine Monohydrate], the “Time (Minutes) to dissolve” value [1, 9] was 14.42 min.
With CC(=O)N[C@@H](CC(C)C)C(=O)O [N-Acetyl Leucine, N-acetyl L-leucine] the “solubility in an aqueous medium (in words)” value ([3]; aqueous medium) was “extremely poor solubility” and the “Time (Minutes) to dissolve” value [1, 12] was 120.17 min.
For CN(CC(=O)N[C@@H](CCC(N)=O)C(=O)O)C(=N)N [Creatyl-L-Glutamine], the “Time (Minutes) to dissolve” value [4] was 6.33 min and the “Time (Minutes) to dissolve” value [1, 9] was 25.02 min.
In the case of CC(C)C[C@H](NC(=O)CN(C)C(=N)N)C(=O)O [Creatyl-L-Leucine], the “Time (Minutes) to dissolve” value [4] is reported as 3.08 min and the “Time (Minutes) to dissolve” value [1, 9] is reported as 9.05 min.
